From PubChem BioAssay (NCI)
Where “and” joins values, the source holds several entries; their conditions need not be identical. Equal values may be shown once.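 Following 48 hours of exposure in 96-well plates, responses at five concentrations were used to interpolate endpoints linearly. Here, GI50 denotes the concentration required for 50% inhibition of growth. TGI denotes the concentration required for complete inhibition of growth.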

What was measured:
Assay in all cases: NCI anticancer screen, dose series, 48 h
[1] = tested on: 786-0 renal
[2] = tested on: CCRF-CEM leukemia
[3] = tested on: DU-145 prostate
[4] = tested on: IGROV1 ovarian
[5] = tested on: NCI-H226 lung
[6] = tested on: NCI-H460 lung
[7] = tested on: NCI-H522 lung
[8] = tested on: SNB-19 CNS
[9] = tested on: U251 CNS
[10] = tested on: UACC-257 melanoma

## O=C(CSc1nc2ccccc2nc1-c1ccccc1)Nc1ccc(F)cc1
[1]
  GI50: 49.2 µM
  TGI: > 100 µM
[2]
  GI50: > 100000 nM
  TGI: > 100 µM
[3]
  GI50: 51 µM
  TGI: > 100 µM
[4]
  GI50: 42.4 µM
  TGI: > 100 µM
[5]
  GI50: > 100 µM
  TGI: > 100 µM
[6]
  GI50: 60.7 µM
  TGI: > 100 µM
[7]
  GI50: 24200 nM
  TGI: > 100 µM
[8]
  GI50: 34.5 µM
  TGI: > 100 µM
[9]
  GI50: 38.8 µM
  TGI: > 100 µM
[10]
  GI50: 92.8 µM
  TGI: > 100 µM

## CCn1c2ccccc2c2cc(NC(=O)Nc3ccc([N+](=O)[O-])cc3C)ccc21
[1]
  GI50: 4.61 µM
  TGI: 84.9 µM
[2]
  GI50: 1620 nM
  TGI: 4 µM
[3]
  GI50: 5.38 µM
  TGI: > 100 µM
[4]
  GI50: 3.38 µM
  TGI: 14.1 µM
[5]
  GI50: 4.4 µM
  TGI: 29.2 µM
[6]
  GI50: 3.09 µM
  TGI: 14.8 µM
[7]
  GI50: 1960 nM
  TGI: 7.64 µM
[8]
  GI50: 8.95 µM
  TGI: > 100 µM
[9]
  GI50: 3.85 µM
  TGI: 21.6 µM
[10]
  GI50: 16.6 µM
  TGI: 68.7 µM

## Cn1cc(C2=C(c3cn(CCCCO)c4ccccc34)C(=O)NC2=O)c2ccccc21
[1]
  GI50: 8.81 µM
  TGI: > 25 µM
[2]
  GI50: 6000 nM
  TGI: > 25 µM
[3]
  GI50: 10 µM
  TGI: > 25 µM
[4]
  GI50: 12.2 µM
  TGI: > 22.9 µM
[5]
  GI50: 7.55 µM
  TGI: > 25 µM
[6]
  GI50: 8.41 µM
  TGI: > 25 µM
[7]
  GI50: 10400 nM
  TGI: > 25 µM
[8]
  GI50: 14.7 µM
  TGI: > 25 µM
[9]
  GI50: 8.55 µM
  TGI: > 25 µM
[10]
  GI50: 19.8 µM
  TGI: > 25 µM

## Cn1cc(NC(=O)Nc2cc(C(=O)Nc3cc(C(=O)Nc4ccc(S(=O)(=O)O)c5cc(S(=O)(=O)O)ccc45)n(C)c3)n(C)c2)cc1C(=O)Nc1cc(C(=O)Nc2ccc(S(=O)(=O)O)c3cc(S(=O)(=O)O)ccc23)n(C)c1
[1]
  TGI: > 100 µM
[2]
  TGI: > 100 µM
[3]
  TGI: > 100 µM
[4]
  TGI: > 100 µM
[5]
  TGI: > 100 µM
[6]
  TGI: > 100 µM
[7]
  TGI: > 100 µM
[8]
  TGI: > 100 µM
[9]
  TGI: > 100 µM
[10]
  TGI: > 100 µM

## CCCN1C(=O)N(CCC)C2C1NC(=S)N2/N=C/C=C/c1ccccc1OC (stereo unspecified)
[1]
  GI50: 0.779 µM
  TGI: > 68.8 µM
[2]
  GI50: 448 nM
  TGI: > 100 µM
[3]
  GI50: 0.557 µM
  TGI: > 100 µM
[4]
  GI50: 0.831 µM
  TGI: > 100 µM
[5]
  GI50: 4.17 µM
  TGI: > 43.9 µM
[6]
  GI50: 0.418 µM
  TGI: 16.5 µM
[7]
  GI50: 336 nM
  TGI: 12.7 µM
[8]
  GI50: 1.66 µM
  TGI: > 100 µM
[9]
  GI50: 0.588 µM
  TGI: 27.4 µM
[10]
  GI50: 20.3 µM
  TGI: > 100 µM

## C=C(Cl)C(Br)(CCl)CCC(Br)C(C)(C)Cl (stereo unspecified)
[1]
  GI50: 1.67 µM
  TGI: 3.73 µM and 3.21 µM
[2]
  GI50: 223 nM
  TGI: 6.34 µM and 1.38 µM
[3]
  TGI: 26.7 µM
[4]
  GI50: 2.13 µM
  TGI: 4.16 µM
[5]
  GI50: 1.91 µM
  TGI: 5.22 µM
[6]
  TGI: 20.7 µM
[7]
  GI50: 2820 nM
  TGI: 9.26 µM and 6.43 µM
[8]
  TGI: 8.73 µM
[9]
  GI50: 2.74 µM
  TGI: 6.93 µM
[10]
  TGI: 7.78 µM and 8.58 µM
